Structures can show the parent of a compound that is named as a salt.
Legend:
[1] = system: SirT1 levels in N2a-E4 cells; assay: SirT1 levels by AlphaLISA in ApoE4-transfected N2a cells; format: cell-based, murine; conditions: for SirT1 increase: N2a-E4 cells
Method: Prompted by the emerging importance of the associations between ApoE4 and the expression/protein levels of SirT1, high-throughput screening (HTS) of the UCLA compound library was performed using AlphaLISA to detect SirT1 levels in murine neuroblastoma cells stably transfected with ApoE4 (E4-N2a) to identify SirT1 enhancers. […] In the in vivo study, mice were treated orally at 40 mkd (20 mg/kg BID) for 56 days and underwent assessment of cognition in the Novel Object Recognition (NOR) testing paradigm. […] The performance of A03-treated E4-AD mice (FIG. 5A) improved to level of non-transgenic vehicle-treated mice.
For PAMPA in this document: unit not given here.

Compound | SirT1 SOμM [1] | SirT1 SμM [1] | PAMPA (PAMPA) | SirT1 increase [1]
C[C@H](NC(=O)OC(C)(C)C)C(=O)N[C@H]1CCC[C@H]1c1ccc(Cl)cc1 (mixture of isomers) [MP-95, tert-butyl-((S)-1-(((±)-cis-2-(4-chlorophenyl)cyclopentyl)amino)-1-oxopropan-2-yl)carbamate] | a, a (a <250%) | a, a (a <250%) |  | 
C[C@H](N)C(=O)N[C@H]1CCCCNC1=O.Cl (racemic) [MP-103, (S)-2-amino-N—((S)-2-oxoazepan-3-yl)propanamide hydrochloride] | a, a (a <250%) | a, a (a <250%) |  | 
C[C@H](N)C(=O)OC1(Cc2ccc(Cl)cc2)CCNC1 (single isomer, unassigned) [MP-32, 3-(4-chlorobenzyl)pyrrolidin-3-yl L-alaninate] | C (C = 100% increase versus control) | A (A >20%) | 0.68 | 
C[C@H](N)C(=O)OC1(Cc2ccc(Cl)cc2)CCNC1 (single isomer, unassigned) [MP-33, 3-(4-chlorobenzyl)pyrrolidin-3-yl L-alaninate] | C (C = 100% increase versus control) | A (A >20%) | 0.7 | 
C[C@H](NC(=O)OC(C)(C)C)C(=O)O[C@H]1CCC[C@@H]1c1ccc(Cl)cc1 (single isomer, unassigned) [MP-87] | a, a (a <250%) | a, a (a <250%) |  | 
C[C@H](NC(=O)OC(C)(C)C)C(=O)O[C@H]1CCC[C@@H]1c1ccc(Cl)cc1 (single isomer, unassigned) [MP-88] | a, a (a <250%) | a, a (a <250%) |  | 
C[C@H](N)C(=O)O[C@@H]1CCC[C@H]1c1ccc(Cl)cc1.Cl (single isomer, unassigned) [MP-90] | a, a (a <250%) | a, a (a <250%) |  | 
C[C@H](NC(=O)OC(C)(C)C)C(=O)O[C@H]1CCC[C@H]1c1ccc(Cl)cc1 (single isomer, unassigned) [MP-91] | a, a (a <250%) | a, a (a <250%) |  | 
C[C@H](NC(=O)OC(C)(C)C)C(=O)O[C@H]1CCC[C@H]1c1ccc(Cl)cc1 (single isomer, unassigned) [MP-92] | a, a (a <250%) | a, a (a <250%) |  | 
C[C@H](N)C(=O)O[C@@H]1CCC[C@@H]1c1ccc(Cl)cc1.Cl (single isomer, unassigned) [MP-93] | C (C = 100% increase versus control) | A (A >20%) |  | 
C[C@H](N)C(=O)O[C@H]1CCC[C@H]1c1ccc(Cl)cc1.Cl (single isomer, unassigned) [MP-94] | A (A >20%) | a (a <250%) |  | 
C[C@H](NC(=O)OC(C)(C)C)C(=O)N[C@@H]1CCC[C@@H]1c1ccc(Cl)cc1 (single isomer, unassigned) [MP-96] | a, a (a <250%) | a, a (a <250%) |  | 
C[C@@H](N)C(=O)OC1(Cc2ccc(Cl)cc2)CCNCC1 (stereo in doubt) [MP-49, 4-(4-chlorobenzyl)piperidin-4-yl alaninate] | B (B >50%) | A (A >20%) | 1.02(2) | 
C[C@H](NC(=O)OC(C)(C)C)C(=O)N(C)[C@H]1CCC(c2ccc(Cl)c(Cl)c2)c2ccccc21 (stereo in doubt) [MP-80, tert-butyl ((S)-1-(((1S,4R)-4-(3,4-dichlorophenyl)-1,2,3,4-tetrahydronaphthalen-1-yl)(methyl)amino)-1-oxopropan-2-yl)carbamate] | a, a (a <250%) | a, a (a <250%) |  | 
C[C@H](N)C(=O)N(C)[C@H]1CCC(c2ccc(Cl)c(Cl)c2)c2ccccc21.Cl (stereo in doubt) [MP-81, (S)-2-amino-N-((1S,4R)-4-(3,4-dichlorophenyl)-1,2,3,4-tetrahydronaphthalen-1-yl)-N-methylpropanamide hydrochloride] | B, B (B >50%) | B, B (B >50%) |  | 
O=C1NCc2ccccc2C[C@@H]1N[C@@H](c1ccccc1)[C@H](O)c1ccccc1 (stereo in doubt) [MP-102, 4(R)-(1R,2S)-1,2-diphenyl-2-hydroxyethylamino-2,3,4,5-tetrahydro-1H-2-benzazepin-3-one] | a, a (a <250%) | a, a (a <250%) |  | 
CC(C)(Cc1ccc(Cl)cc1)OC(=O)C(N)Cc1ccccc1 (stereo not drawn) [MP-01, 1-(4-chlorophenyl)-2-methylpropan-2-yl 2-amino-3-phenylpropanoate] | A, A (A >20%) | A, A (A >20%) | 4.72 | 
CC(N)C(=O)OC(C)(C)Cc1ccccc1 (stereo not drawn) [MP-02, 2-methyl-1-phenylpropan-2-yl 2-aminopropanoate] | A, A (A >20%) | A, A (A >20%) | 3.17 | 
CC(N)C(=O)OC(C)(C)Cc1ccc(F)c(F)c1 (stereo not drawn) [MP-03, 1-(3,4-difluorophenyl)-2-methylpropan-2-yl 2-aminopropanoate] | C (C = 100% increase versus control) | B (B >50%) | 2.37 | 
CC(N)C(=O)OC(C)(C)Cc1ccc(F)cc1 (stereo not drawn) [MP-04, 1-(4-fluorophenyl)-2-methylpropan-2-yl 2-aminopropanoate] | B (B >50%) | A (A >20%) | 2.75 | 

Compound | SirT1 SOμM [1] | SirT1 SμM [1] | PAMPA (PAMPA) | SirT1 increase [1]
C[C@H](N)C(=O)Nc1cccc2ccccc12 [MP-54, (S)-2-amino-N-(naphthalen-1-yl)propanamide] | C (C = 100% increase versus control) | A (A >20%) |  | 
C[C@H](Nc1ccccc1-c1ccccc1)C(N)=O [MP-60] | B (B >50%) | A (A >20%) |  | 
N[C@H]1Cc2ccccc2CNC1=O [MP-71, (S)-4-amino-4,5-dihydro-1H-benzo[c]azepin-3(2H)-one hydrochloride] | C (C = 100% increase versus control) | B (B >50%) |  | 
C[C@H](NC(=O)OC(C)(C)C)C(=O)OC(C)(C)Cc1ccc(C(F)(F)F)cc1 [MP-75, 2-methyl-1-(4-(trifluoromethyl)phenyl)propan-2-yl 2-((tert-butoxycarbonyl)amino)propanoate] | a, a (a <250%) | a, a (a <250%) |  | 
C[C@H](N)C(=O)NC(C)(C)Cc1ccc(F)cc1.Cl [MP-83, (S)-2-amino-N-(1-(4-fluorophenyl)-2-methylpropan-2-yl)propanamide hydrochloride] | A (A >20%) | a (a <250%) |  | 
C[C@H](N)C(=O)NC1CCc2ccccc2NC1=O (stereo partly drawn) [MP-84, (2S)-2-amino-N-(2-oxo-2,3,4,5-tetrahydro-1H-benzo[b]azepin-3-yl)propanamide hydrochloride] | A (A >20%) | a (a <250%) |  | 
C[C@H](NC(=O)OC(C)(C)C)C(=O)N[C@H]1CCC[C@@H]1c1ccc(Cl)cc1 [MP-85, tert-butyl ((S)-1-(((1S,2R)-2-(4-chlorophenyl)cyclopentyl)amino)-1-oxopropan-2-yl)carbamate] | a, a (a <250%) | a, a (a <250%) |  | 
C[C@H](N)C(=O)N[C@H]1CCC[C@@H]1c1ccc(Cl)cc1.Cl [MP-86, (S)-2-amino-N-((1S,2R)-2-(4-chlorophenyl)cyclopentyl)propanamide] | B (B >50%) | A (A >20%) |  | 
C[C@H](N)C(=O)O[C@@H]1CCC[C@H]1c1ccc(Cl)cc1.Cl [MP-89, (S)-(1R,2S)-2-(4-chlorophenyl)cyclopentyl 2-aminopropanoate hydrochloride] | A (A >20%) | a (a <250%) |  | 
C[C@H](N)C(=O)NC(C)(C)Cc1ccncc1.Cl [MP-100, (S)-2-amino-N-(2-methyl-1-(pyridin-4-yl)propan-2-yl)propanamide hydrochloride] | A, A (A >20%) | A, A (A >20%) |  | 
C[C@H](N)C(=O)NC(C)(C)c1ccc(Cl)cc1.Cl [MP-101, (S)-2-amino-N-(2-(4-chlorophenyl)propan-2-yl)propanamide hydrochloride] | B (B >50%) | a (a <250%) |  | 
C[C@H](N)C(=O)N[C@H]1Cc2ccccc2CN(C)C1=O.Cl [MP-104, (S)-2-amino-N—((S)-2-methyl-3-oxo-2,3,4,5-tetrahydro-1H-benzo[c]azepin-4-yl)propanamide hydrochloride] | A (A >20%) | a (a <250%) |  | 
C[C@H](N)C(=O)N[C@H]1Cc2ccccc2CNC1=O.Cl [MP-105, (S)-2-amino-N—((S)-3-oxo-2,3,4,5-tetrahydro-1H-benzo[c]azepin-4-yl)propanamide hydrochloride] | a, a (a <250%) | a, a (a <250%) |  | 
C[C@H](N)C(=O)NC(C)(Cc1cc(F)cc(F)c1)Cc1cc(F)cc(F)c1 [MP-106, (S)-2-amino-N-(1,3-bis(3,5-difluorophenyl)-2-methylpropan-2-yl)propanamide hydrochloride] | a, a (a <250%) | a, a (a <250%) |  | 
N[C@@H](CO)C(=O)NCCc1ccc(Cl)cc1 [MP-107] | A, A (A >20%) | A, A (A >20%) |  | 
CN1Cc2ccccc2C[C@H](N)C1=O [MP-108] | A, A (A >20%) | A, A (A >20%) |  | 
Cl.N[C@H]1Cc2cc(Cl)ccc2CNC1=O [MP-109, (S)-4-amino-7-chloro-4,5-dihydro-1H-benzo[c]azepin-3(2H)-one] | B (B >50%) | A (A >20%) |  | increases SirT1
CNCCC(Oc1ccc(C(F)(F)F)cc1)c1ccccc1 (stereo not drawn) [fluoxetine, reference compound] |  |  |  | did not increase SirT1
CC12CC3CC(C)(C1)CC(N)(C3)C2 [memantine, reference compound] |  |  |  | did not increase SirT1
